# From publication PMC5517562, “Design and discovery of novel monastrol-1,3,5-triazines as potent anti-breast cancer agent via attenuating Epidermal Growth Factor Receptor tyrosine kinase” (Scientific Reports, 2017)
# Experiments:
# [1] = system: HepG2 (Hepatocellular carcinoma); assay: MTT in vitro cytotoxicity assay, HepG2; assay type: cell-based, human; conditions: Homo sapiens, NA: Not active
# Procedure: (§1) The synthesized compounds were evaluated for in-vitro cytotoxic activity against various cell lines such as HeLa (cervical cancer), MCF-7 (breast cancer), HL-60 (Human promyelocytic leukemia), HepG2 (Hepatocellular carcinoma) and MCF 12A (normal epithelial cell) by the MTT assay method. […] The relationship between surviving fraction and drug concentration was plotted to obtain the survival curve of all the cancer cell lines HeLa, MCF-7, HL-60 and HepG2. The response parameter calculated was the IC50 values, which responds to the concentration required for 50% inhibition of cell viability. The in-vitro cytotoxic activity of the synthesized compounds is summarized Table 3.
# (§2) The target compounds were subjected to in vitro cytotoxicity bioassay. In vitro cytotoxicity was determined using a standard MTT assay with protocol appropriate for the individual test system[29]–[31]. The four human cancer cell lines HeLa, MCF-7, HL-60, HepG2 and MCF-12A were cultured in the MEM medium supplemented with 10% FBS, 1% glutamine and […] gentamicin sulfate in a CO2 incubator in a humidified atmosphere of 5% CO2 and 95% air. The test compounds were prepared prior to the experiment by dissolving in 0.1% DMSO and diluted with medium. The cells were then exposed to different concentrations of drugs ([…]) in the volume of […]. Cells in the control wells received the same volume of medium containing 0.1% DMSO. After 24 h, the medium was removed and cell cultures were incubated with […] MTT reagent (1 mg/ml) for 5 h at 37 °C. The known number of cells ([…]) was incubated in a 5% CO2 incubator at 37 °C in the presence of different concentrations of test compounds. After 48 h of drug incubation, the MTT solution was added in each well and absorbance was recorded at 540 nm by an ELISA reader. The experiment was performed in triplicate. Cell survival was calculated as the percentage of MTT inhibition as % growth inhibition = 100 − (mean OD of individual test Group/Mean OD of each Control Group) × 100.
# [2] = system: MCF-7 (breast cancer); assay: MTT in vitro cytotoxicity assay, MCF-7; assay type: cell-based, human; conditions: Homo sapiens, MCF7
# Procedure: as §1, §2
# [3] = system: DMBA induced mammary tumor; assay: DMBA induced mammary tumor in female Sprague-Dawley rats; assay type: in vivo, rat
# From the text: Encouraged by the excellent EGFR-TK inhibitory activity and anticancer effect of compound 7l against breast cancer cells which are further substantiated with docking analysis, prompted us to further analyze the effect of compound 7l in the in-vivo system. Therefore, we have utilized 7,12-Dimethylbenz(a)anthracene (DMBA), a polycyclic aromatic hydrocarbon, to induce the mammary carcinogenesis in the experimental animals to quantify the potential protective effect of compound 7l. The mechanism behind its action to induce the cancer is based on its metabolized product, i.e. the epoxide that readily forms DNA adducts which is responsible for malignant alteration. At the first instance, the effect of compound 7l was analyzed on the effect of body weight of the experimental animals.
# Animal model. The female Sprague-Dawley rats (100–120 g) were obtained from the Institutional animal house after approval from the Institutional Animal Ethics Committee. The animals were kept in suitable cages with free access to food and water under a controlled temperature (24 ± 2 °C), humidity (60 ± 10%) with alternate light/dark cycle of 12 h. The entire experimental procedures involving animals were approved by the Institutional Animal Ethics Committees (IAEC) of SHUATS, in accordance and duly approved with CPCSEA (Committee for the Purpose of Control and Supervision of Experiments on Animals, Government of India. The authors confirm that all experiments were performed in accordance with relevant guidelines and regulations of SHUATS.
# Initiation of breast carcinogenesis. The mammary carcinogenesis was induced in experimental rat using one-time subcutaneous administration of DMBA (25 mg) in emulsified form with the help of sunflower oil and saline to each rat.
# Design of experiment. Experimental design. Total numbers of 30 animals were randomly divided into five groups and each group contains 6 animals. The various groups received different treatment as follows:
# The DMBA (s.c.; 25 mg/rat) was administered to each rats near mammary gland at the end of the first week. The test drug was administered once in a day and was continued till the end of the experimental period. At the end of 16th week, the rats were fasted overnight and sacrificed by the cervical decapitation under influence of anesthesia. The blood samples were collected in and after centrifugation, the plasma was used for the further biochemical analysis. The liver and mammary tissues were excised immediately from the experimental rats and homogenized with suitable buffer, centrifuged and the resulting supernatant was used for biochemical estimations.
# Biochemical Estimation. The remaining excised liver and mammary tissues were rinsed in ice-cold saline and known amount of the tissue were homogenized in 0.1 M Tris-HCl buffer (pH 7.4) at 4°C. The supernatant was collected as tissue homogenate and was used for the estimation of various biochemical parameters. The microsomal protein concentration was estimated by the method of Lowry et al.[33]; while, the concentration of plasma and mammary TBARS was estimated by the earlier reported method, [35] and the concentration of plasma and mammary tissue LOOH were estimated by the previous method. Moreover, the activity of the antioxidant enzyme system, such as SOD, CAT, GPX, GSH, CYP450, Cyt-b5, GST and GR activity in plasma and mammary tissue were determined by the earlier method given elsewhere[37]–[43].
# [4] = DMBA rats, 5, 10, 15 mg/kg once a day
# [5] = liver and mammary tissues of DMBA treated animals
# [6] = plasma and mammary tissues of DMBA treated animals
compound,measurement,setting,value
"CCOC(=O)C1=C(C)N(c2nc(Nc3cccc(F)c3)nc(Nc3cccc(F)c3)n2)C(=S)NC1c1ccc(F)cc1 (stereo not drawn) [7l, Ethyl 1-(4,6-bis((3-fluorophenyl)amino)-1,3,5-triazin-2-yl)-4-(4-fluorophenyl)-6-methyl-2-thioxo-1,2,3,4-tetrahydropyrimidine-5-carboxylate]",IC50,[1],31.2 ± 0.82 µM
same,IC50,[2],41.5 ± 0.31 µM
same,Percentage of tumour incidence,[3]; [4],efficient in reducing the percentage of incidence of tumour
same,Tumour volume,[3]; [4],significant reduction
same,Body weight of experimental animals,"[3]; DMBA rats, 5, 10, 15 mg/kg once a day, vs DMBA group",significantly improved
same,Concentration of Phase I enzymes (CYP450 and Cyt-b5),[3]; [5],marked decline
same,Concentration of Phase II enzymes (GST and GR),[3]; [5],significant upsurge
same,"Antioxidant status (SOD, CAT, GSH, GPx)",[3]; [6],significant improvement
same,Level of TBARS and LOOH (lipid peroxidation),[3]; [6],significant reduction
